According to patent US20220339257A1, “METHODS TO INCREASE THE SENSITIVITY AND REVERSING THE RESISTANCE TO DRUGS” (Biomarker Strategies, LLC, priority 2019, published 2022):

B1: interferon-alpha-1 (protein, UniProt P01562 24-189, looked up)
Interferon alpha-1/13: CDLPETHSLDNRRTLMLLAQMSRISPSSCLMDRHDFGFPQEEFDGNQFQKAPAISVLHELIQQIFNLFTTKDSSAAWDEDLLDKFCTELYQQLNDLEACVMQEERVGETPLMNADSILAVKKYFRRITLYLTEKKYSPCAWEVVRAEIMRSLSLSTNLQERLRRKE
notes: enhancer molecule, cytokine purchased from Sigma

Key:
Assay in all cases: Western blot of protein biomarkers
Assay type in all cases: cell-based
BICR-16 cells = conditions: IFN-γ (100 ng/mL)+TNF-α (10 ng/mL), 24 hours
Procedure: (§1) MTA and EM effects on protein biomarker expression were measured by western blotting. For the assay cell lines (Ca9-22, PE/CA-PJ15, HTB-38, HPAF-II, CAL27, BICR-16, A-253, Calu-6, PC-9, H1838, RPMI-7951 and A7) were cultured and treated with doses of MTAs alone, EMs alone and in combination and then lysed for protein analysis. This method can readily be conducted under adherent or suspension conditions, manually or on automated instruments, such as SnapPath. A total of 0.3×10^6 cells per well were seeded in 6 well plates with 10% FBS-containing media and incubated for 24 hours. Cells were then treated with MTA and/or EM concentrations for 24 hours. For total protein extraction, briefly, each sample media was collected, and wells were washed with HMS, and the wash was combined with its respective media collection. Cells were then detached using Accutase solution and again collected in its respective sample media and another HMS well wash and collection was performed. All cell solutions were centrifuged, washed with ice-cold PBS, and centrifuged again. Cell pellets were lysed in 250 μL of ice-cold 1× lysis buffer with protease and phosphatase inhibitor cocktails and incubated for 10 minutes on ice. Lysates were clarified with a centrifugation (14,000 rpm) for 10 minutes at 4° C. Cell lysates were quantified using Bio-Rad DC Protein Assay (Bio-Rad Cat. #5000116).
(§2) For all western blots, an equal amount of protein (3-5 μg) was loaded into SDS-polyacrylamide gels (Mini-Protean TGX Precast Gel; Bio-Rad, e.g. 7.5%, Cat. #4561024; 10%, Cat. #4561035; 12%, Cat. #4561045; or 4-15%, Cat. #4561085). Proteins were separated at 215V for at least 30 minutes in 1× Tris/Glycine/SDS buffer (Bio-Rad Cat. #1610772) and transferred to PVDF membranes using a Trans-Blot Turbo (Bio-Rad Cat. #1704155) for 7 minutes in transfer buffer (Trans-Blot Turbo Transfer Kit, Bio-Rad Cat. #1704273). Blots were blocked at room temperature for 1 hour with 5% non-fat dry milk in tris-buffered saline with Tween 20 (TBST; 15 mM Tris-HCl, pH 7.5, 200mMNaCl and 0.1% Tween 20). Membranes were incubated with primary antibodies at 4° C. overnight and at room temperature for 1 hour the next day; all primary antibodies were diluted following manufacturer's specifications in TBST with either 5% BSA or 5% non-fat dry milk. Membranes were washed in TBST for 5 minutes, three times, and incubated with HRP-conjugated secondary antibodies diluted 1:5000 in TBST with 5% non-fat dry milk at room temperature for 1 hour (anti-rabbit IgG, Bio-Rad Cat. #1706515; or anti-mouse IgG, Bio-Rad Cat. #1706516). Membranes were then washed in TBST for 10 minutes, three times, and target proteins were identified using Clarity Western ECL Substrate (Bio-Rad Cat. #1705061) on autoradiography film (GenHunter Cat. #B581, Nashville, Tenn., USA). Other assay types, such as Luminex multiplexed immunoassays, ICC, IHC, flow cytometry, etc. can be used readily.

PC-9 cells = conditions: trametinib (100 nM)+TNF-α (10 ng/mL), 24 hours
Procedure: as §1, §2

HTB-38 cells = system: HTB-38 cells
Procedure: as §1, §2

PE/CA-PJ15 cells = conditions: osimertinib (100 nM)+IFN-α (200 ng/mL)
Procedure: as §1, §2

Ca9-22 cells = conditions: compared to either alone
Procedure: as §1, §2

[1] = compared to either therapy alone
[2] = osimertinib (1000 nM)+IFN-α (200 ng/mL)

| Molecule | PARP cleavage (BICR-16 cells; compared to MTA and EM alone) | LC3II over LC3I expression (BICR-16 cells; compared to either alone) | Ki67 degradation and/or fragmentation pattern (BICR-16 cells; [1]) | PARP cleavage (PC-9 cells; compared to MTA and EM alone) | p-AKT (Ser473) expression (PC-9 cells; compared to either MTA or EM alone) | Ki67 degradation and/or fragmentation pattern (PC-9 cells; [1]) | LC3II expression (HTB-38 cells; IFN-γ (100 ng/mL)+TNF-α) | p62 expression (HTB-38 cells; IFN-γ (100 ng/mL)+TNF-α) | PARP cleavage (HTB-38 cells; IFN-γ (100 ng/mL)+TNF-α (10 ng/mL), 24 hours, compared to MTA and EM alone) | Ki67 degradation and/or fragmentation pattern (HTB-38 cells; IFN-γ (100 ng/mL)+TNF-α (10 ng/mL), 24 hours, compared to either therapy alone) | p62 expression (PE/CA-PJ15 cells) | LC3II over LC3I expression (PE/CA-PJ15 cells; 24 hours, compared to either alone) | LC3II over LC3I expression (Ca9-22 cells; GSK-458 (10 nM)+IFN-α (200 ng/mL), 24 hours) | LC3II expression (Ca9-22 cells; [2]) | p62 expression (Ca9-22 cells; [2]) |
| --- | --- | --- | --- | --- | --- | --- | --- | --- | --- | --- | --- | --- | --- | --- | --- |
| tumor necrosis factor-alpha [EM2] | very strong PARP cleavage | marked increase in LC3II over LC3I expression | marked increase in the distinct degradation and/or fragmentation pattern of Ki67 | very strong PARP cleavage | strong reduction in p-AKT (Ser473) expression | marked increase in the distinct degradation and/or fragmentation pattern of Ki67 | increased expression | increased expression | very strong PARP cleavage | marked increase in the distinct degradation and/or fragmentation pattern of Ki67 |  |  |  |  |  |
| B1 |  |  |  |  |  |  |  |  |  |  | increased expression | marked increase in LC3II over LC3I expression | marked increase in LC3II over LC3I expression | LC3II upregulation | reduction in p62 |
